From US7294687B2, “Parenteral formulations of a peptide for the treatment of systemic lupus erythematosus” (TEVA Pharmaceutical Industries, Ltd., priority 2003, dated 2007)

Key:
[1] = tested on: IFN-γ secretion by LN cells; assay: IFN-γ secretion by cultured LN cells of immunized and treated mice, ELISA; format: in vivo, BALB/c mice
Procedure: A group of 20 mice were immunized with 50 μg/mouse of Compound 1 RS. The immunized mice were allocated to five treatment groups as follows: placebo, 25, 50, 100 and 200 μg/mouse of Compound 1 DP (subcutaneous administration). Ten days post immunization and treatment, LN was extracted and single cell suspension was prepared. The in-vitro secretion of IFN-γ and TGF-β by the cultured cells in response to activation with several concentrations of Compound 1 RS was then measured. [table] [table] […] Mice were sacrificed by cervical dislocation. LN were extracted from the hind legs and were transferred to a sterile petri dish containing about 5 mL RPMI. The cells were extracted by gentle squeezing of the tissue against a 200 micrometer mesh stainless steel net. The cells were collected and centrifuged at 300 G for 10 minutes at RT. Single cell suspensions were prepared from pooled LN of each experimental group. […] Secretion of IFN-γ and TGF-β, as indication of cellular response, were determined by ELISA of culture media (48 hrs for IFN-γ and 72 hrs for TGF-β). [table]

SLE subjects [2] = assay: Phase Ia single dose clinical study, tolerability and safety; format: in vivo, human
Procedure: The following safety parameters were assessed at Screening, during the hospitalization and at follow-up visits including Termination visit: vital signs (systolic blood pressure, diastolic blood pressure, pulse, oxygen saturation, temperature and weight), 12-lead ECG, change in physical examination and clinical routine laboratory safety tests. Adverse events were recorded at the Dosing Day and at each visit thereafter.

[3] = tested on: IL-2 secretion from Compound 1 reference standard (RS) specific T-cells; assay: Inhibition of IL-2 secretion from Compound 1 RS specific T-cells following s.c. treatment, ELISA; format: in vivo, mice; settings: at the range of 5-100 μg/ml activator
Excerpt: The biological activity was monitored by inhibition of IL-2 secretion from Compound 1 reference standard (RS) specific T-cells following subcutaneous (s.c.) treatment with the lyophilized compound solution, i.e. the drug product (DP), at two concentrations. The results of the treatment are compared to those of treating mice with Compound 1 (RS) in phosphate buffered saline (PBS).

[4] = Stability of Compound 1 versus pH, initial tests; format: physicochemical; settings: basic pH range
Procedure: Thus, several buffers and pH adjustment agents were tested, including acetate buffer, citrate buffer and sodium carbonate. None of the initially tested buffers achieved the desired peptide solubility level. […] Nevertheless, at the initial stage, formulations with acetate buffer and citrate buffer (with Mannitol as a tonicity agent) were selected for initial toxicology studies. These formulations were tested for biological activity and proven active.

[5] = tested on: peripheral blood lymphocytes (PBL) of SLE patients; settings: cited from earlier work
[6] = tested on: Balb/c mice and SLE-prone (NZBxNZW)F1 mice; settings: cited from earlier work
SLE subjects [7] = assay: Phase Ib multiple dose clinical study, tolerability and safety; format: in vivo, human; settings: multiple subcutaneous doses of 0.5, 1 or 2.5 mg in 120 mg Captisol®; 12 sc injections
Procedure: This study is being performed in order to evaluate the safety and tolerability of repeated Compound 1 sc administration to SLE subjects. […] The investigational product is administered every other day (excluding weekends) for a total of 12 sc injections, i.e. 3 doses a week for 4 weeks. Subjects are monitored on planned visits scheduled at 2, 4, 8 and 12 weeks after start of dosing. Safety and tolerability are evaluated using tests similar to those described in the Phase Ia Clinical Study above.

[8] = tested on: SLE-prone (NZBxNZW)F1 female mouse; assay: Intensity of immune complex deposits (ICD) in kidneys; format: in vivo, (NZBxNZW)F1 mice
Procedure: (§1) The same batch of drug substance was used in this study and in the first Phase I clinical trial with Compound 1. The mice were followed for anti-dsDNA antibodies and for proteinuria. When the mice were sacrificed, the intensity of ICD was determined in kidneys.

[9] = tested on: peripheral blood lymphocytes (PBL) of SLE subjects; settings: Compound 1 in captisol®, throughout the study period
[10] = tested on: SLE-prone (NZBxNZW)F1 female mouse; assay: Anti-dsDNA antibodies in SLE-prone mice; format: in vivo, (NZBxNZW)F1 mice; settings: 25 or 50 μg/mouse in Captisol®; after 10 treatment injections; vs Captisol® alone
Procedure: as §1

[11] = single s.c. dose 0.5, 1 or 2.5 mg in Captisol®
[12] = single s.c. dose 0.5, 1 or 2.5 mg in Captisol®, vs placebo

H-GYYWSWIRQPPGKGEEWIG-OH [Compound 1]
Final cytokine (IFN-γ secretion) ([1]; Compound 1 DP 25 μg/M s.c., 5 million cells/well, activation Compound 1 RS 3.125 μg/ml): BQL
Final cytokine (IFN-γ secretion) ([1]; Compound 1 DP 25 μg/M s.c., 5 million cells/well, activation Compound 1 RS 6.25 μg/ml): BQL
Final cytokine (IFN-γ secretion) ([1]; Compound 1 DP 25 μg/M s.c., 5 million cells/well, activation Compound 1 RS 12.5 μg/ml): 41.9 pg/mL
Final cytokine (IFN-γ secretion) ([1]; Compound 1 DP 25 μg/M s.c., 5 million cells/well, activation Compound 1 RS 50 μg/ml): 104.2 pg/mL
Final cytokine (IFN-γ secretion) ([1]; Compound 1 DP 25 μg/M s.c., 5 million cells/well, activation Compound 1 RS 100 μg/ml): 185.2 pg/mL
Final cytokine (IFN-γ secretion) ([1]; Compound 1 DP 25 μg/M s.c., 5 million cells/well, activation Compound 1 RS 25 μ/ml): 70.0 pg/mL
Final cytokine (IFN-γ secretion) ([1]; Compound 1 DP 25 μg/M s.c., 5 million cells/well, activation Con A): 2995.3 pg/mL
Final cytokine (IFN-γ secretion) ([1]; Compound 1 DP 50 μg/M s.c., 2.5 million cells/well, activation Compound 1 RS 3.125 μg/ml): 54.1 pg/mL
Final cytokine (IFN-γ secretion) ([1]; Compound 1 DP 50 μg/M s.c., 2.5 million cells/well, activation Compound 1 RS 6.25 μg/ml): 81.8 pg/mL
Final cytokine (IFN-γ secretion) ([1]; Compound 1 DP 50 μg/M s.c., 2.5 million cells/well, activation Compound 1 RS 12.5 μg/ml): 123.1 pg/mL
Final cytokine (IFN-γ secretion) ([1]; Compound 1 DP 50 μg/M s.c., 2.5 million cells/well, activation Compound 1 RS 50 μg/ml): 292.5 pg/mL
Final cytokine (IFN-γ secretion) ([1]; Compound 1 DP 50 μg/M s.c., 2.5 million cells/well, activation Compound 1 RS 100 μg/ml): 531.8 pg/mL
Final cytokine (IFN-γ secretion) ([1]; Compound 1 DP 50 μg/M s.c., 2.5 million cells/well, activation Compound 1 RS 25 μ/ml): 215.1 pg/mL
Final cytokine (IFN-γ secretion) ([1]; Compound 1 DP 50 μg/M s.c., 2.5 million cells/well, activation Con A): 356.2 pg/mL
Final cytokine (IFN-γ secretion) ([1]; Compound 1 DP 50 μg/M s.c., 5 million cells/well, activation Compound 1 RS 3.125 μg/ml): 76.2 pg/mL
Final cytokine (IFN-γ secretion) ([1]; Compound 1 DP 50 μg/M s.c., 5 million cells/well, activation Compound 1 RS 6.25 μg/ml): 109.2 pg/mL
Final cytokine (IFN-γ secretion) ([1]; Compound 1 DP 50 μg/M s.c., 5 million cells/well, activation Compound 1 RS 12.5 μg/ml): 179.5 pg/mL
Final cytokine (IFN-γ secretion) ([1]; Compound 1 DP 50 μg/M s.c., 5 million cells/well, activation Compound 1 RS 50 μg/ml): 373.4 pg/mL
Final cytokine (IFN-γ secretion) ([1]; Compound 1 DP 50 μg/M s.c., 5 million cells/well, activation Compound 1 RS 100 μg/ml): 547.0 pg/mL
Final cytokine (IFN-γ secretion) ([1]; Compound 1 DP 50 μg/M s.c., 5 million cells/well, activation Compound 1 RS 25 μ/ml): 277.9 pg/mL
Final cytokine (IFN-γ secretion) ([1]; Compound 1 DP 50 μg/M s.c., 5 million cells/well, activation Con A): 4837.0 pg/mL
Final cytokine (IFN-γ secretion) ([1]; Compound 1 DP 100 μg/M s.c., 2.5 million cells/well, activation Compound 1 RS 3.125 μg/ml): 64.5 pg/mL
Final cytokine (IFN-γ secretion) ([1]; Compound 1 DP 100 μg/M s.c., 2.5 million cells/well, activation Compound 1 RS 6.25 μg/ml): 116.1 pg/mL
Final cytokine (IFN-γ secretion) ([1]; Compound 1 DP 100 μg/M s.c., 2.5 million cells/well, activation Compound 1 RS 12.5 μg/ml): 180.9 pg/mL
Final cytokine (IFN-γ secretion) ([1]; Compound 1 DP 100 μg/M s.c., 2.5 million cells/well, activation Compound 1 RS 50 μg/ml): 518.3 pg/mL
Final cytokine (IFN-γ secretion) ([1]; Compound 1 DP 100 μg/M s.c., 2.5 million cells/well, activation Compound 1 RS 100 μg/ml): 582.7 pg/mL
Final cytokine (IFN-γ secretion) ([1]; Compound 1 DP 100 μg/M s.c., 2.5 million cells/well, activation Compound 1 RS 25 μ/ml): 262.8 pg/mL
Final cytokine (IFN-γ secretion) ([1]; Compound 1 DP 100 μg/M s.c., 2.5 million cells/well, activation Con A): 337.4 pg/mL
Final cytokine (IFN-γ secretion) ([1]; Compound 1 DP 100 μg/M s.c., 5 million cells/well, activation Compound 1 RS 3.125 μg/ml): 90.8 pg/mL
Final cytokine (IFN-γ secretion) ([1]; Compound 1 DP 100 μg/M s.c., 5 million cells/well, activation Compound 1 RS 6.25 μg/ml): 157.8 pg/mL
Final cytokine (IFN-γ secretion) ([1]; Compound 1 DP 100 μg/M s.c., 5 million cells/well, activation Compound 1 RS 12.5 μg/ml): 257.1 pg/mL
Final cytokine (IFN-γ secretion) ([1]; Compound 1 DP 100 μg/M s.c., 5 million cells/well, activation Compound 1 RS 50 μg/ml): 739.7 pg/mL
Final cytokine (IFN-γ secretion) ([1]; Compound 1 DP 100 μg/M s.c., 5 million cells/well, activation Compound 1 RS 100 μg/ml): 995.5 pg/mL
Final cytokine (IFN-γ secretion) ([1]; Compound 1 DP 100 μg/M s.c., 5 million cells/well, activation Compound 1 RS 25 μ/ml): 421.7 pg/mL
Final cytokine (IFN-γ secretion) ([1]; Compound 1 DP 100 μg/M s.c., 5 million cells/well, activation Con A): 10126.8 pg/mL
Final cytokine (IFN-γ secretion) ([1]; Compound 1 DP 200 μg/M s.c., 2.5 million cells/well, activation Compound 1 RS 3.125 μg/ml): 103.9 pg/mL
Final cytokine (IFN-γ secretion) ([1]; Compound 1 DP 200 μg/M s.c., 2.5 million cells/well, activation Compound 1 RS 6.25 μg/ml): 126.1 pg/mL
Final cytokine (IFN-γ secretion) ([1]; Compound 1 DP 200 μg/M s.c., 2.5 million cells/well, activation Compound 1 RS 12.5 μg/ml): 129.0 pg/mL
Final cytokine (IFN-γ secretion) ([1]; Compound 1 DP 200 μg/M s.c., 2.5 million cells/well, activation Compound 1 RS 50 μg/ml): 378.1 pg/mL
Final cytokine (IFN-γ secretion) ([1]; Compound 1 DP 200 μg/M s.c., 2.5 million cells/well, activation Compound 1 RS 100 μg/ml): 524.1 pg/mL
Final cytokine (IFN-γ secretion) ([1]; Compound 1 DP 200 μg/M s.c., 2.5 million cells/well, activation Compound 1 RS 25 μ/ml): 240.3 pg/mL
Final cytokine (IFN-γ secretion) ([1]; Compound 1 DP 200 μg/M s.c., 2.5 million cells/well, activation Con A): BQL
Final cytokine (IFN-γ secretion) ([1]; Compound 1 DP 200 μg/M s.c., 5 million cells/well, activation Compound 1 RS 3.125 μg/ml): 204.4 pg/mL
Final cytokine (IFN-γ secretion) ([1]; Compound 1 DP 200 μg/M s.c., 5 million cells/well, activation Compound 1 RS 6.25 μg/ml): 244.1 pg/mL
Final cytokine (IFN-γ secretion) ([1]; Compound 1 DP 200 μg/M s.c., 5 million cells/well, activation Compound 1 RS 12.5 μg/ml): 466.1 pg/mL
Final cytokine (IFN-γ secretion) ([1]; Compound 1 DP 200 μg/M s.c., 5 million cells/well, activation Compound 1 RS 50 μg/ml): 922.5 pg/mL
Final cytokine (IFN-γ secretion) ([1]; Compound 1 DP 200 μg/M s.c., 5 million cells/well, activation Compound 1 RS 100 μg/ml): 1006.2 pg/mL
Final cytokine (IFN-γ secretion) ([1]; Compound 1 DP 200 μg/M s.c., 5 million cells/well, activation Compound 1 RS 25 μ/ml): 660.5 pg/mL
Final cytokine (IFN-γ secretion) ([1]; Compound 1 DP 200 μg/M s.c., 5 million cells/well, activation Con A): 7722.8 pg/mL
inhibition of IFN-γ secretion ([1]; all the doses used for treatment (25-200 μg/mouse)): Significant inhibition
QTc change from baseline (SLE subjects [2]; [11]): ≤ 60 ms
serious adverse event (SAE) or AE classified as severe (SLE subjects [2]; [11]): No serious adverse event (SAE) or AE classified as severe occurred
vital signs parameters (systolic and diastolic blood pressure, pulse, oxygen saturation) (SLE subjects [2]; [11]): No clinically significant effect
categorical ECG measurements and digitized ECG parameters (SLE subjects [2]; [12]): No differences of clinical significance
incidence of AEs (SLE subjects [2]; [12]): no prominent difference
safety and tolerability, Phase Ia (SLE subjects [2]; single subcutaneous dose of 0.5, 1 or 2.5 mg in 120 mg Captisol®): safe and well tolerated
Average inhibition (%) of IL-2 secretion ([3]; treatment 50 μg/mouse s.c.): 45.6%
Average inhibition (%) of IL-2 secretion ([3]; treatment 200 μg/mouse s.c.): 60.4%
stability versus pH [4]: less stable
proliferative response of PBL of SLE patients to the human anti-DNA 16/6Id mAB [5]: inhibit the proliferative response
SLE related findings: immune complex deposits (ICD) in the kidney, proteinuria and leukopenia ([6]; Balb/c and (NZBxNZW)F1 mice): significantly reduced
disease manifestations of mice afflicted with spontaneous or experimental SLE ([6]; mouse, in vivo): ameliorate disease manifestations
safety and tolerability, Phase Ib (SLE subjects [7]): safe and well tolerated
ICD (Mean ± SEM) ([8]; 50 μg/mouse in Captisol ®, intensity scale 0 = none to 3 = severe/extremely intense): 1.90 ± 0.23
intensity of immune complex deposits in kidney sections ([8]; 25 or 50 μg/mouse dissolved in Captisol®, FIG. 6): much lower than that observed in the control group
immunological response to TTX recall antigen [9]: did not change the immunological response to TTX recall antigen
levels of dsDNA-specific antibodies [10]: no significant differences between groups
